Measurements reported in US7655819B2, “Polymers with antimicrobial, bioresistant and fungal resistant properties” (TPAT IP LLC, priority 2002, dated 2010).

Tests used:
[1] = test system: bacteria (bacterial count); assay: ASTM D-3946-92 testing of metalworking fluid Encool SS with product incorporated; type: cell-based; details: day 5, 1×10^7 without product
Procedure: 1,128 g oleic acid and 400 g BNPD plus 2 g sulfuric were charged in a three neck round bottom flask with agitation, nitrogen, and condenser and heated to 350 F and held for 2.5 hrs until 80 ml of water were recovered. This product was then incorporated into Engineered Lubricants Encool SS at 6% and 10% of the concentrate.
These samples were then submitted for ASTM D-3946-92 testing.

[2] = test system: nematodes in the soil; details: prior art; cited from earlier work
[3] = prior art; cited from earlier work
[4] = test system: various strains of both gram positive and gram negative bacteria; details: cited from earlier work
[5] = test system: fungus; details: cited from earlier work

CCCCCCC/C=C/CCCCCCCCC(=O)OCC(Br)(COC(=O)CCCCCCCC/C=C/CCCCCCC)[N+](=O)[O-] [Example 7]
bacterial count ([1]; 6% incorporation in Encool SS concentrate): 1.5×10^4
bacterial count ([1]; 10% incorporation in Encool SS concentrate): 3×10^3

O=[N+]([O-])CBr [bromonitromethane]
effectiveness for the treatment of nematodes in the soil [2]: effective
effectiveness as a general biocide [3]: effective

O=[N+]([O-])C(Br)(CO)CO [BNPD, 2-bromo-2-nitro-propane-1-3-diol]
average minimum inhibitory concentration ([4]; average over gram positive and gram negative strains): around 25 ppm
effective concentrations against bacteria ([4]; various strains of gram positive and gram negative bacteria): 1-50 ppm
antifungal activity [5]: antifungal
